The values below come from patent US20240279635A1, “BIOFILM ACTIVITY ADJUSTING METHOD” (NATIONAL INSTITUTE FOR MATERIALS SCIENCE, priority 2021, published 2024).

This test deals with Klebsiella pneumoniae. The test is described as follows: Electric current generation by Klebsiella pneumoniae with electron mediators in a three-electrode electrochemical cell (time-current curve, FIG. 4). In kind it is cell-based. The following applies: 100 μM electron mediator, 10 mM glucose, working electrode +0.2 V (vs. Ag/AgCl), 37° C., anaerobic condition, 15 hours, carbon electrodes. Here is the method:
The experiment was performed using a three-electrode electrochemical cell having carbon electrodes as the working electrode and counter electrode, and a silver/silver chloride electrode as the reference electrode.
First, as an electron source, a liquid culture medium (defined medium) containing 10 mM of glucose and 100 μM of electron mediator (see below) was added to the cell described above, to which Klebsiella pneumoniae (optical density (OD): 0.1) was inoculated, then an electric potential of the working electrode was set to +0.2 V (vs. Ag/AgCl) at 37° C., and the culture medium was incubated under anaerobic condition for 15 hours.
• HNQ: 2-hydroxy-1,4-naphthoquinone • 1-Phenazine: 1-hydroxyphenazine • AQDS: anthraquinone-1,5-disulfonate • AQS: anthraquinone-1-sulfonate • FMN: flavin mono nucleotide • RF: ribobflavin • W/O mediator: no electron mediator
FIG. 4 is a time-current curve.

As for `O=C1C=C(O)C(=O)c2ccccc21` [HNQ, 2-hydroxy-1,4-naphthoquinone], the “generated electric current (time-current curve)” value was “a large electric current could be generated”.
